The source of these data is patent US10221197B2, “Phosphatidylinositol 3-kinase inhibitors” (Gilead Sciences, Inc., priority 2014, dated 2019).

Where two headings read alike, the source gives them in different places.

Common to all, as to format: biochemical
In assay [1] the target is PI3Kδ (Homo sapiens (Human), UniProt O00329). In words: TR-FRET enzymatic assay of PI3K isoforms (PI3Kδ). The settings on record: 2×Km ATP, 2 μM PIP2, incubated for 30 minutes at 25° C., read-out: δ IC50. Here is the method:
(§1) The compounds of formula (I) were characterized for their enzymatic activity against the PI3K isoforms. Certain compounds of the present application, including certain compounds of formula (II) and (III) were also characterized for their enzymatic activity against PI3K isoforms. The activities were measured using a time-resolved fluorescence resonance energy transfer (TR-FRET) assay.
(In general: TR-FRET usually uses a lanthanide donor and a delayed reading to cut background.)

For assay [2], the target named is PI3Kβ (Homo sapiens (Human), UniProt P42338). The assay is described as follows: TR-FRET enzymatic assay of PI3K isoforms (PI3Kβ). The conditions noted are these: for IC50: TR-FRET, 2×Km ATP, 2 μM PIP2, incubated for 30 minutes at 25° C., read-out: β IC50; for PI3Kγ/PI3Kβ ratio: ratio of IC50 values, selectivity for PI3Kβ over PI3Kγ. The protocol:
as §1

Assay [3] concerns the target PI3Kγ (Homo sapiens (Human), UniProt P48736). The assay is described as follows: TR-FRET enzymatic assay of PI3K isoforms (PI3Kγ). The settings on record: read-out: γ IC50. The protocol:
as §1

The mark [4] stands for this setting: TR-FRET, 2×Km ATP, 2 μM PIP2, PI3Kγ at 2 nM, incubated for 30 minutes at 25° C.

Sequence of PI3Kβ (P42338 whole entry, canonical isoform): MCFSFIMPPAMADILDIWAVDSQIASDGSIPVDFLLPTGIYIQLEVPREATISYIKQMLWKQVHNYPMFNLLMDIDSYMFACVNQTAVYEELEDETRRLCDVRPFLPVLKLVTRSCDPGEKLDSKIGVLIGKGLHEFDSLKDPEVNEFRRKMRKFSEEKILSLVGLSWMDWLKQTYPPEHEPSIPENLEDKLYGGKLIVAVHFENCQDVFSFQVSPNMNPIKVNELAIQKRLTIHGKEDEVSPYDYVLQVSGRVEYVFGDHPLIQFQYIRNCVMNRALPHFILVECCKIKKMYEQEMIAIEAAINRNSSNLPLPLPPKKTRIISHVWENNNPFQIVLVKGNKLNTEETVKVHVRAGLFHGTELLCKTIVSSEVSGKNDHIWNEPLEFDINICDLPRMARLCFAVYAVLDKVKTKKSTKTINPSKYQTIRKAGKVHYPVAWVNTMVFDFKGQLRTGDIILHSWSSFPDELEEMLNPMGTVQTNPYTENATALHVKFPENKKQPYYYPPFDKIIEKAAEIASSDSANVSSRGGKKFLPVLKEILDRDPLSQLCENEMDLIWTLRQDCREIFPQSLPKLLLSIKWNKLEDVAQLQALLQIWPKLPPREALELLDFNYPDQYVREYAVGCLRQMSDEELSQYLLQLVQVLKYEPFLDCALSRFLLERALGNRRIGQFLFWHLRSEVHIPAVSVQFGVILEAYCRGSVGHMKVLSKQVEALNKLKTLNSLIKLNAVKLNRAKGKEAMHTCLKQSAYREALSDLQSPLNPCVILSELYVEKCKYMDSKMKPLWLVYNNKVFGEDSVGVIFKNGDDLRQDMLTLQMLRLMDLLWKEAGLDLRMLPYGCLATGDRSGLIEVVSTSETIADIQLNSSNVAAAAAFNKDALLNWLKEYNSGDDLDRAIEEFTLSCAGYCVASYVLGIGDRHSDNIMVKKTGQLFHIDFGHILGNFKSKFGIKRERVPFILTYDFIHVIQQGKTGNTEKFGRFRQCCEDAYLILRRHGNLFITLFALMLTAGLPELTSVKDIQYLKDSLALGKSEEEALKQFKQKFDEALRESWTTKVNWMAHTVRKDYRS
Sequence of PI3Kβ (P27986 whole entry partner, canonical isoform): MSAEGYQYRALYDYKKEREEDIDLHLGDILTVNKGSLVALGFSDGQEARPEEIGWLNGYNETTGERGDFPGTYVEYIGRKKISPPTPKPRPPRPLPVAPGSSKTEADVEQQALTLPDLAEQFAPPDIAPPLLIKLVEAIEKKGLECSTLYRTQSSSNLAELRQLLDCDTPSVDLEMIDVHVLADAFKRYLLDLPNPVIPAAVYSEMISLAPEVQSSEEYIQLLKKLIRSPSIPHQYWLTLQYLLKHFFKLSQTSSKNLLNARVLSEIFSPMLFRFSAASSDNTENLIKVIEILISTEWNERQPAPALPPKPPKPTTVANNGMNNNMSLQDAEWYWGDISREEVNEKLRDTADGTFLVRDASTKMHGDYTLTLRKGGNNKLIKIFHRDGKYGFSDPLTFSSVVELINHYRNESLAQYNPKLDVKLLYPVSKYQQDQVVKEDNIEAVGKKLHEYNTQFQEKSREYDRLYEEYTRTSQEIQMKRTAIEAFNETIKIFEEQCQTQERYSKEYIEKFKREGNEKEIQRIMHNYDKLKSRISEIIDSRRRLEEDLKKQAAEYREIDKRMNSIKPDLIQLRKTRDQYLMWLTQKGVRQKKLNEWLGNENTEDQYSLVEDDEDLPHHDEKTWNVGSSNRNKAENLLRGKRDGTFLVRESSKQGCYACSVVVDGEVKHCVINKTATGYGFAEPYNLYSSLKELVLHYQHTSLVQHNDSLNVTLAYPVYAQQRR
Sequence of PI3Kγ (P48736 whole entry, canonical isoform): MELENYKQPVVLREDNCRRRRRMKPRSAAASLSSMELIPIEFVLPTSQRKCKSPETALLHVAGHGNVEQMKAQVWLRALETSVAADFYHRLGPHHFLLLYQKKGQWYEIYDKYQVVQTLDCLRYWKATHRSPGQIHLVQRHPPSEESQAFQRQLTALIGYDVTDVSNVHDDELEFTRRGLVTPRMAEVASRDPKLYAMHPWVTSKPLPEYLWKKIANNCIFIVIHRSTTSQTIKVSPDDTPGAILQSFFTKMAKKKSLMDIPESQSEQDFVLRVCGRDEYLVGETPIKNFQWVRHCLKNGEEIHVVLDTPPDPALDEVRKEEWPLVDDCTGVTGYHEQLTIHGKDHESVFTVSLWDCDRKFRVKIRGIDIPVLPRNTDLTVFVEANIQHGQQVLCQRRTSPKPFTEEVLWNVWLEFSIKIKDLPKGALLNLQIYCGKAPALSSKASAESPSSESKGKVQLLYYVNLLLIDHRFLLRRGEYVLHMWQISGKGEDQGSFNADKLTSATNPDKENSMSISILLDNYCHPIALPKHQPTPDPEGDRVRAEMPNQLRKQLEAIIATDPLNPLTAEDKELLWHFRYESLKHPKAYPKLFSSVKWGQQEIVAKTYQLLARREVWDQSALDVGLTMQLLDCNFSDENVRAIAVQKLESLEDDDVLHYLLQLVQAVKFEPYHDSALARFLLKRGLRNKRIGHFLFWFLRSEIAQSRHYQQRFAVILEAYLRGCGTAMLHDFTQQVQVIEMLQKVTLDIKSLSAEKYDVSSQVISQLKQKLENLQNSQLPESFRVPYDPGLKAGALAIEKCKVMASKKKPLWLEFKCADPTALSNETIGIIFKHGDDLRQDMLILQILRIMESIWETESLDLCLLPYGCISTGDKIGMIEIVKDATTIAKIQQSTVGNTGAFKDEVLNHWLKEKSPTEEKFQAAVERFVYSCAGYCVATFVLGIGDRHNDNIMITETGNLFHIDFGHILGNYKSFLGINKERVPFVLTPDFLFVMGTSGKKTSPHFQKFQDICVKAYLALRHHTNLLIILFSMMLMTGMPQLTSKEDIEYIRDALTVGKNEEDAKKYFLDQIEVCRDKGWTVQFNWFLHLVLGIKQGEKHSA
Sequence of PI3Kγ (Q8WYR1 whole entry partner, canonical isoform): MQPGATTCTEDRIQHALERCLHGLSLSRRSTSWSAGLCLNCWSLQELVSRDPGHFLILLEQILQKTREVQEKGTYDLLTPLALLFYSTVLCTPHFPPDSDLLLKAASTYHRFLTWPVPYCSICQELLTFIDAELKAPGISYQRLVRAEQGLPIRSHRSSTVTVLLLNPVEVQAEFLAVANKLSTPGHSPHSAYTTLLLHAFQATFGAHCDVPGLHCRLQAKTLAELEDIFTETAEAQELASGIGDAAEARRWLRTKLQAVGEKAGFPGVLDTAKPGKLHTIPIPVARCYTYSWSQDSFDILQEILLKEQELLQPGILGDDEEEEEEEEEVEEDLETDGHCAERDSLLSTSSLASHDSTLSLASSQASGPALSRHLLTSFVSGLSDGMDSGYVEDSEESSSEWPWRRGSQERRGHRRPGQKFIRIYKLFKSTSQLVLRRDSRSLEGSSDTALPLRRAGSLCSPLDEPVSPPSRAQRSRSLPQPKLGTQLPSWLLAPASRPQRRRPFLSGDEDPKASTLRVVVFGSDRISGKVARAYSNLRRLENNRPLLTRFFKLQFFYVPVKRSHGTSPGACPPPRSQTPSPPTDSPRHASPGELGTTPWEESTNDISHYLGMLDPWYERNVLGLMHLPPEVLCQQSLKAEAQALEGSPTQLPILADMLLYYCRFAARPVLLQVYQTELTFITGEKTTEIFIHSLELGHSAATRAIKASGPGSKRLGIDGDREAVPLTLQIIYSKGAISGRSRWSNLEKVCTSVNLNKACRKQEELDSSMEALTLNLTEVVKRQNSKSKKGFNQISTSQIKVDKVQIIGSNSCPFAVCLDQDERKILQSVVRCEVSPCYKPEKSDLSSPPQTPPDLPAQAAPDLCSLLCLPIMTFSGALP
Sequence of PI3Kδ (O00329 whole entry, canonical isoform): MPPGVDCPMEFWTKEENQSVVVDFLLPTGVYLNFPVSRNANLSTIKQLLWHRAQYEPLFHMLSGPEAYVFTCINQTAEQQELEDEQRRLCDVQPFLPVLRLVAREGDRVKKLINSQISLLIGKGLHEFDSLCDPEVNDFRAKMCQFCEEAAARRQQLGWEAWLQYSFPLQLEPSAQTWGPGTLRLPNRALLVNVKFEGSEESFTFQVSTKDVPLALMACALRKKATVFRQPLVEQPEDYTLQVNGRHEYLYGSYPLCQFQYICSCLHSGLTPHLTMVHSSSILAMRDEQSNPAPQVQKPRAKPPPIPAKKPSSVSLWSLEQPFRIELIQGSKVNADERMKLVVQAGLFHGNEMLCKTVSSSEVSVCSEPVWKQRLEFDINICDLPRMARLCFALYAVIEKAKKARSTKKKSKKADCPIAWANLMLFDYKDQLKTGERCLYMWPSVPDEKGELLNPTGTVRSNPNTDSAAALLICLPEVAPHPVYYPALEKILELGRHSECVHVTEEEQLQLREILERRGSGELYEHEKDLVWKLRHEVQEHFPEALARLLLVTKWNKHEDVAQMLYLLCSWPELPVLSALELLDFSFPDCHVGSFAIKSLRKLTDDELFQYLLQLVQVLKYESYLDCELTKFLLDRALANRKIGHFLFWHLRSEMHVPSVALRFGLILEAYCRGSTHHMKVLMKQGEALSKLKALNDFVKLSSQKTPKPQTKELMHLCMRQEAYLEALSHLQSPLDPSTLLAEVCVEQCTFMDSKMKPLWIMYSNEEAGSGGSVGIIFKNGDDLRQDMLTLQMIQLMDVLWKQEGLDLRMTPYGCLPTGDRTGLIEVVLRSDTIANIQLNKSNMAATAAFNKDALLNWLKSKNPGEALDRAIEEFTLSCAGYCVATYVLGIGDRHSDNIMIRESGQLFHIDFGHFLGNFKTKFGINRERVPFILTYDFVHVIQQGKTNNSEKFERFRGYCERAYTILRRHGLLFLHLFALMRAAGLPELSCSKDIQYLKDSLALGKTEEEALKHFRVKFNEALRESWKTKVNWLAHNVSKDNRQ
Sequence of PI3Kδ (P27986 whole entry partner, canonical isoform): as the sequence (P27986 whole entry partner, canonical isoform) above

The term IC50 denotes the concentration that gives 50% inhibition. As to `CCNC(=O)Nc1ccc(Cl)c(-n2c([C@H](C)Nc3ncnc(N)c3C#N)nc3cccc(Cl)c3c2=O)c1` (atropisomer, axis not shown) [Compound 58, (S)-1-(3-(2-(1-((6-amino-5-cyanopyrimidin-4-yl)amino)ethyl)-5-chloro-4-oxoquinazolin-3(4H)-yl)-4-chlorophenyl)-3-ethylurea], the half-maximal inhibitory concentration (IC50) in assay [1] was 24 nM; in assay [2] it was 1300 nM.

Turning to `CCNC(=O)Nc1ccc(Cl)c(-n2c([C@H](C)Nc3ncnc(N)c3C#N)nc3cccc(Cl)c3c2=O)c1` (atropisomer, axis not shown) [Compound 59, (S)-1-(3-(2-(1-((6-amino-5-cyanopyrimidin-4-yl)amino)ethyl)-5-chloro-4-oxoquinazolin-3(4H)-yl)-4-chlorophenyl)-3-ethylurea], the IC50 in assay [1] is 56 nM; in assay [3] (setting [4]), 2300 nM; in assay [2], 610 nM.

For `CCNC(=O)Nc1ccc(C)c(-n2c([C@H](C)Nc3ncnc(N)c3C#N)nc3cccc(Cl)c3c2=O)c1` (atropisomer, axis not shown) [Compound 60, (S)-1-(3-(2-(1-((6-amino-5-cyanopyrimidin-4-yl)amino)ethyl)-5-chloro-4-oxoquinazolin-3(4H)-yl)-4-methylphenyl)-3-ethylurea], the IC50 in assay [1] is 4 nM; in assay [3] (setting [4]), 210 nM; in assay [2] it was 210 nM.

For the compound `CCNC(=O)Nc1ccc(C)c(-n2c([C@H](C)Nc3ncnc(N)c3C#N)nc3cccc(Cl)c3c2=O)c1` (atropisomer, axis not shown) [Compound 61, (S)-1-(3-(2-(1-((6-amino-5-cyanopyrimidin-4-yl)amino)ethyl)-5-chloro-4-oxoquinazolin-3(4H)-yl)-4-methylphenyl)-3-ethylurea], the values for the IC50 in assay [1], in assay [3] (setting [4]) and in assay [2] were 8 nM, 2500 nM and 1130 nM, respectively.

In the case of `Cc1c(C(N)=O)cccc1-n1c([C@H](C)Nc2nc(N)nc(N)c2C#N)nc2cccc(Cl)c2c1=O` (single isomer, unassigned) [Compound 5], the results for the IC50 in assay [1], in assay [3] (setting [4]) and in assay [2] were 2 nM, 81 nM and 526 nM, respectively.

As for `Cc1c(C(N)=O)cccc1-n1c([C@H](C)Nc2nc(N)nc(N)c2C#N)nc2cccc(Cl)c2c1=O` (single isomer, unassigned) [Compound 6], the IC50 is 4 nM in assay [1], 620 nM in assay [3] (setting [4]) and 32 nM in assay [2].

Regarding `Cc1nc(N)nc(N[C@H](c2nc3c(Cl)ccc(Cl)c3c(=O)n2-c2cccc(C(N)=O)c2)C2CC2)c1C#N` [Compound 13, (S)-3-(2-(((2-amino-5-cyano-6-methylpyrimidin-4-yl)amino)(cyclopropyl)methyl)-5,8-dichloro-4-oxoquinazolin-3(4H)-yl)benzamide], the values for the concentration for half-maximal inhibition (IC50) in assay [3] (setting [4]) and in assay [2] were 510 nM and 7 nM, respectively.

In the case of `CCC[C@H](Nc1nc(N)nc(N)c1C#N)c1nc2c(Cl)ccc(Cl)c2c(=O)n1-c1cccc(C(N)=O)c1` [Compound 20, (S)-3-(5,8-dichloro-2-(1-((2,6-diamino-5-cyanopyrimidin-4-yl)amino)butyl)-4-oxoquinazolin-3(4H)-yl)benzamide], the 50% inhibitory concentration (IC50) was found to be 1400 nM in assay [3] (setting [4]) and 11 nM in assay [2].

`N#Cc1c(N)nc(N)nc1N[C@H](c1nc2c(Cl)cc(F)cc2c(=O)n1-c1cccc(C(N)=O)c1)C1CC1` [Compound 27, (S)-3-(8-chloro-2-(cyclopropyl((2,6-diamino-5-cyanopyrimidin-4-yl)amino)methyl)-6-fluoro-4-oxoquinazolin-3(4H)-yl)benzamide]: the IC50 came to 2 nM in assay [1] and 5 nM in assay [2].

For the compound `C[C@H](Nc1nc(N)nc(N)c1C#N)c1nc2c(Cl)cc(F)cc2c(=O)n1-c1cccc(C(N)=O)c1` [Compound 29], the IC50 came out at 440 nM in assay [3] (setting [4]) and 8 nM in assay [2].

Take `CCNC(=O)Nc1cccc(-n2c([C@@H](Nc3ncnc(N)c3C#N)[C@@H](C)CC)nc3cccc(Cl)c3c2=O)c1` [Compound 42, 1-(3-(2-((1S,2S)-1-((6-amino-5-cyanopyrimidin-4-yl)amino)-2-methylbutyl)-5-chloro-4-oxoquinazolin-3(4H)-yl)phenyl)-3-ethylurea]: the values for the IC50 in assay [3] (setting [4]) and in assay [2] were over 10000 nM and 170 nM, respectively.

Take `CCNC(=O)Nc1cccc(-n2c([C@@H](C)Nc3ncnc(N)c3C#N)nc3cccc(Cl)c3c2=O)c1` [Compound 44, (R)-1-(3-(2-(1-((6-amino-5-cyanopyrimidin-4-yl)amino)ethyl)-5-chloro-4-oxoquinazolin-3(4H)-yl)phenyl)-3-ethylurea]: the IC50 is over 10000 nM in assay [3] (setting [4]) and 320 nM in assay [2].

Regarding `CCNC(=O)Nc1cccc(-n2c([C@H](C)Nc3ncnc(N)c3C#N)nc3cccc(C(F)(F)F)c3c2=O)c1` [Compound 51, (S)-1-(3-(2-(1-((6-amino-5-cyanopyrimidin-4-yl)amino)ethyl)-4-oxo-5-(trifluoromethyl)quinazolin-3(4H)-yl)phenyl)-3-ethylurea], the IC50 in assay [2] is 67 nM.

Take `CCNC(=O)Nc1cccc(-n2c([C@H](C)Nc3ncnc4[nH]cnc34)nc3c(F)ccc(Cl)c3c2=O)c1` [Compound 63, (S)-1-(3-(2-(1-((9H-purin-6-yl)amino)ethyl)-5-chloro-8-fluoro-4-oxoquinazolin-3(4H)-yl)phenyl)-3-ethylurea]: the IC50 in assay [1] and in assay [2] was 29 nM each time.

As for `CCNC(=O)Nc1cccc(-n2c([C@H](C)Nc3ncnn4ccnc34)nc3cccc(Cl)c3c2=O)c1` [Compound 71, (S)-1-(3-(5-chloro-2-(1-(imidazo[2,1-f][1,2,4]triazin-4-ylamino)ethyl)-4-oxoquinazolin-3(4H)-yl)phenyl)-3-ethylurea], the values for the IC50 in assay [3] (setting [4]) and in assay [2] were 2000 nM and 29 nM, respectively.

For the compound `C[C@H](Nc1ncnc(N)c1C#N)c1nc2cccc(Cl)c2c(=O)n1-c1cccc(NC(=O)Nc2cc(C(C)(C)C)on2)c1` [Compound 74, (S)-1-(3-(2-(1-((6-amino-5-cyanopyrimidin-4-yl)amino)ethyl)-5 chloro-4-oxoquinazolin-3(4H)-yl)phenyl)-3-(5-(tert-butyl)isoxazol-3-yl)urea], the half-inhibitory concentration (IC50) came to 3 nM in assay [1] and 11 nM in assay [2].

As for `CCNC(=O)Nc1cccc(-n2c([C@H](C)Nc3ncnc(N)c3C#N)nc3cccc(Cl)c3c2=O)c1` [Compound 90, (S)-1-(3-(2-(1-((6-amino-5-cyanopyrimidin-4-yl)amino)ethyl)-5-chloro-4-oxoquinazolin-3(4H)-yl)phenyl)-3-ethylurea], the IC50 was 3400 nM in assay [3] (setting [4]) and 5 nM in assay [2].

On to `C[C@H](Nc1ncnc(N)c1C#N)c1nc2cccc(Cl)c2c(=O)n1-c1cccc(NC(=O)Nc2c(Cl)cccc2Cl)c1` [Compound 103, (S)-1-(3-(2-(1-((6-amino-5-cyanopyrimidin-4-yl)amino)ethyl)-5-chloro-4-oxoquinazolin-3(4H)-yl)phenyl)-3-(2,6-dichlorophenyl)urea], for which the IC50 in assay [1] was 7 nM; in assay [2], 2 nM.

As to `C[C@H](Nc1ncnc(N)c1C#N)c1nc2cccc(Cl)c2c(=O)n1-c1cccc(NC(=O)Nc2ccc(F)cc2F)c1` [Compound 105, (S)-1-(3-(2-(1-((6-amino-5-cyanopyrimidin-4-yl)amino)ethyl)-5-chloro-4-oxoquinazolin-3(4H)-yl)phenyl)-3-(2,4-difluorophenyl)urea], the figures for the IC50 in assay [3] (setting [4]) and in assay [2] were 800 nM and 3 nM, respectively.

In the case of `N#Cc1c(N)ncnc1N[C@@H](COCc1ccccc1)c1nc2cccc(Cl)c2c(=O)n1-c1cccc(NC(=O)NCCCO)c1` [Compound 130, (R)-1-(3-(2-(1-((6-amino-5-cyanopyrimidin-4-yl)amino)-2-(benzyloxy)ethyl)-5-chloro-4-oxoquinazolin-3(4H)-yl)phenyl)-3-(3-hydroxypropyl)urea], the IC50 in assay [3] is over 10000 nM; in assay [2], 24 nM.

As to `CCNC(=O)Nc1cccc(-n2c([C@H](COCc3ccccc3)Nc3ncnc4[nH]cnc34)nc3cccc(Cl)c3c2=O)c1` [Compound 133, (R)-1-(3-(2-(1-((9H-purin-6-yl)amino)-2-(benzyloxy)ethyl)-5-chloro-4-oxoquinazolin-3(4H)-yl)phenyl)-3-ethylurea], the IC50 is 10000 nM in assay [3] (setting [4]) and 50 nM in assay [2].

As for `C[C@H](Nc1ncnc2[nH]cnc12)c1nc2cccc(Cl)c2c(=O)n1-c1cccc(NC(=O)Nc2ccccc2S(C)(=O)=O)c1` [Compound 145, (S)-1-(3-(2-(1-((9H-purin-6-yl)amino)ethyl)-5-chloro-4-oxoquinazolin-3(4H)-yl)phenyl)-3-(2-(methylsulfonyl)phenyl)urea], the IC50 in assay [1] came out at 8 nM; in assay [2], 30 nM.

`COCCNC(=O)Nc1cccc(-n2c(C(C)Oc3ncnc4scnc34)nc3cccc(Cl)c3c2=O)c1` (stereo not shown) [Compound 149, 1-(3-(5-chloro-4-oxo-2-(1-(thiazolo[5,4-d]pyrimidin-7-yloxy)ethyl)quinazolin-3(4H)-yl)phenyl)-3-(2-methoxyethyl)urea]: the IC50 in assay [3] (setting [4]) was determined as 3500 nM; in assay [2], 60 nM.

In the case of `C[C@H](Nc1nc(N)nc(N)c1C#N)c1nc2cccc(Cl)c2c(=O)n1-c1ccccc1` [Compound X, (S)-2,4-diamino-6-((1-(5-chloro-4-oxo-3-phenyl-3,4-dihydroquinazolin-2-yl)ethyl)amino)pyrimidine-5-carbonitrile, reference compound], the PI3Kγ/PI3Kβ ratio in assay [2] is given as 0.6; in assay [2] (listed as (S)-2,4-diamino-6-(1-(5-chloro-4-oxo-3-phenyl-3,4-dihydroquinazolin-2-yl)ethyl)), “less than 1”.
